From patent US8937065B2, “Compositions and methods for modulating a kinase” (Clevexel Pharma, priority 2011, dated 2015) come the findings set out here.

One assay relates to Namalwa cells. Put plainly: Proliferation of Namalwa cells (Cell Titer-Glo). The conditions noted are these: Homo sapiens, B-cell, outcome-based, read-out: IC50 Proliferation Namalwa cells (Burkitt's Lymphoma). A general note: ATP-based viability assays read luminescence as a measure of living cells.
The subject of assay [1] is B cell receptor NFAT-bla RA1. Put plainly: B cell receptor NFAT-bla RA1 inhibition (goat anti-human IgM stimulated, Ramos cells). Conditions: read-out: IC50 B cells mechanism-based: Ramos cells IgM stimulated NFAT activity. The protocol:
The inhibition of B cell receptor NFAT-bla RA 1 (activated by goat anti-human IgM, which stimulates the SYK signaling pathway) by several compounds was determined using the Screening Protocol and Assay Conditions (Invitrogen, Madison, Wis.). The assays were performed according to manufacturer's protocols. See Example 4, Cell-line Specific Protocols B cell receptor activity in Ramos cells for details.
Mechanism-based inhibition assays using compound 7A (Table 1) were performed using GeneBLAzer® Technology (Invitrogen Corporation), according to manufacturer specifications. […] In this state, excitation of the coumarin results in fluorescence resonance energy transfer to the fluorescein moiety and emission of green light. […] Excitation of the coumarin in the presence of Beta-lactamase activity results in a blue fluorescence signal. […]
An activator assay screen was run to obtain the EC80 concentration of the known activator to add in step 3. • 1. […] 4 μL of the EC80 concentration of activator, as determined in an Activator assay, was added to all wells containing compound and known inhibitor to bring the final assay volume to 40 μL. • 4. […] The assay plate was read on a fluorescence plate reader (Tecan Safire) and the data is analyzed. […]
NFAT-bla RA1 cells were thawed. […] The plate was read on a fluorescence plate reader.

The target of the next assay is T1, JAK3 (Homo sapiens, UniProt P52333).
T1 construct: purchased Invitrogen, Madison, Wis
T1 sequence (P52333 1-1124): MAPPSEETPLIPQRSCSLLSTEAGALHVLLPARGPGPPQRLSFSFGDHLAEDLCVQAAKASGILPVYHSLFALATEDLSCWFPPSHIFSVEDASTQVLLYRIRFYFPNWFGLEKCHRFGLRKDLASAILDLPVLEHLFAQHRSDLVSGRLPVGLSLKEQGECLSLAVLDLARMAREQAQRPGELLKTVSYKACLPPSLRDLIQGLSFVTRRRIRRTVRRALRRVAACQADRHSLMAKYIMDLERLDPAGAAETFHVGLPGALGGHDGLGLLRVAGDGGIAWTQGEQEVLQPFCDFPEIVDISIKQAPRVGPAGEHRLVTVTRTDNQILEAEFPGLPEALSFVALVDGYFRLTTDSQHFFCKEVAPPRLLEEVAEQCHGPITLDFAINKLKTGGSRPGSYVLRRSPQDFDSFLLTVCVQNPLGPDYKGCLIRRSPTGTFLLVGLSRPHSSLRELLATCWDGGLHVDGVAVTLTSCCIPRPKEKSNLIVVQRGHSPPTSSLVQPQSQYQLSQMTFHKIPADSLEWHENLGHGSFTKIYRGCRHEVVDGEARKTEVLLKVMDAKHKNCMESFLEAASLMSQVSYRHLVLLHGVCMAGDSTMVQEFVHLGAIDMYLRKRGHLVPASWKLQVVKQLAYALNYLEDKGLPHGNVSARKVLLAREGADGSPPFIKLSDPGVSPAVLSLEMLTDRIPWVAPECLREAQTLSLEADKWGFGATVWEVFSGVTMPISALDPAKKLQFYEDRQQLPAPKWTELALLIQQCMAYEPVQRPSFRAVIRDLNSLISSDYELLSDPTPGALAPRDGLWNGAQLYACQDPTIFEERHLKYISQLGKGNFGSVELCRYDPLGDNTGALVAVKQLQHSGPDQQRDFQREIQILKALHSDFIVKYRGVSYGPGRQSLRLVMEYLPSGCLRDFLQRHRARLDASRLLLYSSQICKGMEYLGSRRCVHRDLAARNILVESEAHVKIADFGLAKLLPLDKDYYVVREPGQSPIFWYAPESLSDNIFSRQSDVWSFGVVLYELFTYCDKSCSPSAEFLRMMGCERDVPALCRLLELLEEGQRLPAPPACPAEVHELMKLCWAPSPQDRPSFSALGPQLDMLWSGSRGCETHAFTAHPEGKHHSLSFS
Put plainly: JAK3 enzymatic activity assay (Z'-LYTE Biochemical Kinase Assay, 2 hr preincubation at 4° C.). Conditions: cell free, 1% DMSO, read-out: JAK3 activity cell free (2 hr preincubation at (4° C.) Kj). The protocol:
The assays were performed according to manufacturer's protocols, except that prior to the kinase reaction they were pre-incubated for 2 hours at 4° C., in order to be able to assay for time-dependent inhibition.
In addition to the compound, each 10 μL JAK3 kinase reaction contained 0.43-1.89 ng JAK3 and 2 μM peptide substrate in 50 mM HEPES (pH 7.5), 0.01% BRIJ-35, 10 mM MgCl2 and 1 mM EGTA. The kinase reaction was allowed to proceed for 1 hour.

As to `O=C(CN1CCOCC1)Nc1cccc(-c2nc(-c3c[nH]c(C(=O)N4CCCC4)c3)cs2)c1` [7A, 2-morpholino-N-(3-(4-(5-(pyrrolidine-1-carbonyl)-1H-pyrrol-3-yl)thiazol-2-yl)phenyl)acetamide], the results for the IC50 (with Namalwa cells; in assay [1]) were 28 µM and 0.124 µM, respectively. For the same compound, the Ki on JAK3 lay in the range of 1.1 to 10 µM.
